Data from patent publication US8828929B2 (priority 2008, dated 2014).
Where no end group is shown, it is not given here.

Columns and labels:
HLA-A*0201 [1] = target: T1, HLA-A*0201 (Homo sapiens, UniProt P04439, /I218V/L300P/L318F/N151K/N90K/P208A/P217A/Q86G/Q94H/R138H/R169H/T345S); assay: cell-based; format: binding
T1 construct: endogenous in cells; host or cells: T2 cells (human lymphoid, TAP-deficient)

[2] = tested on: peptide-specific CTLs (IFN-γ-positive cells among CD8-positive cells); parameters: species or system HLA-A2 transgenic mouse; details: mouse, in vivo; for ICS (% in CD8+ cells): iv
[3] = tested on: peptide-specific CTLs (IFN-γ-positive cells among CD8-positive cells); parameters: species or system HLA-A2 transgenic mouse; details: mouse, in vivo
[4] = tested on: target cells pulsed with the peptide; parameters: species or system HLA-A2 transgenic mouse; details: mouse, in vivo
HLA-A*0201 [5] = target: T2, HLA-A*0201 (Homo sapiens, UniProt P04439, D140Y/D185E/D98H/E176V/E277Q/G131W/G231S/I119V/I121R/I166T/I218V/L300P/L318F/N151K/N90K/P208A/P217A/Q86G/Q94H/R138H/R169H/T345S); assay: cell-based; format: binding
T2 construct: endogenous in cells; host or cells: T2 cells (human lymphoid, TAP-deficient)

| Compound | Affinity (HLA-A*0201 [1]) | ICS (% in CD8+ cells) [2] | induction of IFN-γ-positive cells among CD8-positive cells [2] | CTL induction activity [3] | CTL response activity [4] | peptide-specific lysis rates (%) of the target cells by CTLs [4] [%] | EC50 (HLA-A*0201 [5]) [µM] | ratio (%) of IFN-γ-positive cells among CD8-positive cells [3] [%] |
| --- | --- | --- | --- | --- | --- | --- | --- | --- |
| CC[C@H](C)[C@H](NC(=O)[C@H](CCC(=O)O)NC(=O)[C@H](CC(C)C)NC(=O)[C@H](CC(C)C)NC(=O)[C@H](CC(=O)O)NC(=O)[C@H](CCC(=O)O)NC(=O)[C@H](CC(N)=O)NC(=O)[C@H](CC(C)C)NC(=O)[C@@H](N)[C@@H](C)O)C(=O)O [pp1a-445] | High (key: High: less than 100 μM; Medium: 100 to 200 μM; Low: more than 200 μM) | 0.08% |  |  |  |  |  |  |
| CC[C@H](C)[C@H](NC(=O)[C@H](CC(=O)O)NC(=O)[C@H](Cc1ccccc1)NC(=O)[C@@H](NC(=O)CNC(=O)[C@@H](NC(=O)[C@@H](NC(=O)[C@H](CC(C)C)NC(=O)[C@@H](N)Cc1ccccc1)[C@@H](C)CC)[C@@H](C)O)C(C)C)C(=O)O [pp1a-651] | High (key: High: less than 100 μM; Medium: 100 to 200 μM; Low: more than 200 μM) | 0.02% |  |  |  |  |  |  |
| CC[C@H](C)[C@H](NC(=O)[C@H](CO)NC(=O)[C@H](CC(C)C)NC(=O)[C@H](CC(C)C)NC(=O)[C@H](CC(C)C)NC(=O)[C@H](CC(C)C)NC(=O)[C@H](Cc1c[nH]c2ccccc12)NC(=O)[C@H](CCSC)NC(=O)[C@H](C)N)C(=O)O [pp1a-2207] |  | *0.48% | significantly induced IFN-γ-positive cells among CD8-positive cells | higher than that of the CTL epitope peptide of the Spike protein |  |  |  |  |
| CC(C)C[C@H](NC(=O)[C@H](C)NC(=O)[C@H](C)NC(=O)[C@H](CC(C)C)NC(=O)[C@@H](NC(=O)[C@H](CS)NC(=O)[C@H](CC(C)C)NC(=O)[C@H](CC(C)C)NC(=O)[C@@H](N)[C@@H](C)O)C(C)C)C(=O)O [pp1a-2754, TLLCVLAAL] | High (key: High: less than 100 μM; Medium: 100 to 200 μM; Low: more than 200 μM) | 0.04% |  |  |  |  |  |  |
| CC(C)C[C@H](NC(=O)[C@H](Cc1c[nH]c2ccccc12)NC(=O)[C@H](C)NC(=O)[C@H](CC(C)C)NC(=O)[C@@H](N)C(C)C)C(=O)N[C@@H](Cc1ccc(O)cc1)C(=O)N[C@@H](C)C(=O)N[C@@H](C)C(=O)N[C@H](C(=O)O)C(C)C [pp1a-3444] | High (key: High: less than 100 μM; Medium: 100 to 200 μM; Low: more than 200 μM) | *0.12% | significantly induced IFN-γ-positive cells among CD8-positive cells |  |  |  |  |  |
| CC(C)C[C@H](NC(=O)[C@@H](NC(=O)[C@@H](NC(=O)[C@@H](NC(=O)[C@H](Cc1ccccc1)NC(=O)[C@H](CCCNC(=N)N)NC(=O)[C@H](CC(N)=O)NC(=O)[C@H](CC(C)C)NC(=O)[C@@H](N)Cc1ccccc1)[C@@H](C)O)[C@@H](C)O)[C@@H](C)O)C(=O)O [pp1a-3459] | High (key: High: less than 100 μM; Medium: 100 to 200 μM; Low: more than 200 μM) | 0.03% |  |  |  |  |  |  |
| CC[C@H](C)[C@H](NC(=O)[C@H](CC(C)C)NC(=O)[C@H](CC(C)C)NC(=O)[C@H](CO)NC(=O)[C@@H](NC(=O)[C@H](CC(C)C)NC(=O)[C@@H](N)Cc1ccccc1)[C@@H](C)O)C(=O)N[C@@H](CC(C)C)C(=O)N[C@H](C(=O)O)C(C)C [pp1a-3564] | Medium (key: High: less than 100 μM; Medium: 100 to 200 μM; Low: more than 200 μM) | 0.06% |  |  |  |  |  |  |
| CC(C)C[C@H](NC(=O)[C@H](CO)NC(=O)[C@@H]1CCCN1C(=O)[C@H](CC(C)C)NC(=O)[C@H](CC(C)C)NC(=O)[C@@H](N)Cc1ccccc1)C(=O)N[C@@H](C)C(=O)N[C@H](C(=O)N[C@H](C(=O)O)C(C)C)[C@@H](C)O [pp1a-3616] | High (key: High: less than 100 μM; Medium: 100 to 200 μM; Low: more than 200 μM) | 0.07% |  |  |  |  |  |  |
| CC[C@H](C)[C@H](NC(=O)[C@@H](NC(=O)[C@H](CC(N)=O)NC(=O)[C@H](CCSC)NC(=O)[C@H](CC(C)C)NC(=O)[C@@H](N)[C@@H](C)O)C(C)C)C(=O)N[C@H](C(=O)N[C@@H](CC(C)C)C(=O)N[C@H](C(=O)O)C(C)C)[C@@H](C)O [pp1a-3687] | High (key: High: less than 100 μM; Medium: 100 to 200 μM; Low: more than 200 μM) | *0.20% | significantly induced IFN-γ-positive cells among CD8-positive cells | higher than that of the CTL epitope peptide of the Spike protein |  |  |  |  |
| CC[C@H](C)[C@H](NC(=O)[C@@H](NC(=O)[C@H](CC(C)C)NC(=O)[C@H](C)NC(=O)[C@H](Cc1c[nH]c2ccccc12)NC(=O)[C@H](CCSC)NC(=O)[C@@H](N)CO)C(C)C)C(=O)N[C@@H](CO)C(=O)N[C@H](C(=O)O)C(C)C [pp1a-3709] | High (key: High: less than 100 μM; Medium: 100 to 200 μM; Low: more than 200 μM) | *0.50% | significantly induced IFN-γ-positive cells among CD8-positive cells | higher than that of the CTL epitope peptide of the Spike protein | especially high CTL response activity | 96.3 |  |  |
| ALSGVFCGV [pp1a-2990] | High (key: High: less than 100 μM; Medium: 100 to 200 μM; Low: more than 200 μM) | *0.16% | significantly induced IFN-γ-positive cells among CD8-positive cells | higher than that of the CTL epitope peptide of the Spike protein | high CTL response activities | 73.4 | 6.2 |  |
| CLDAGINYV [pp1a-2187] | High (key: High: less than 100 μM; Medium: 100 to 200 μM; Low: more than 200 μM) | *0.19% | significantly induced IFN-γ-positive cells among CD8-positive cells | higher than that of the CTL epitope peptide of the Spike protein | high CTL response activities | 79.2 | 3 |  |
| FIAGLIAIV [spike-1203, reference compound] |  |  |  |  |  |  |  | 0.29 |
| ILLLDQVLV [pp1a-2546] | High (key: High: less than 100 μM; Medium: 100 to 200 μM; Low: more than 200 μM) | *0.17% | significantly induced IFN-γ-positive cells among CD8-positive cells | higher than that of the CTL epitope peptide of the Spike protein |  |  | 7.6 |  |
| KLNIKLLGI [pp1a-3816] | High (key: High: less than 100 μM; Medium: 100 to 200 μM; Low: more than 200 μM) | 0.07% |  |  |  |  | 68.1 |  |
| KLSAGVEFL [pp1a-634] | High (key: High: less than 100 μM; Medium: 100 to 200 μM; Low: more than 200 μM) | 0.08% |  |  |  |  | 59.8 |  |
| LLCVLAALV [pp1a-2755] |  | *0.18% | significantly induced IFN-γ-positive cells among CD8-positive cells | higher than that of the CTL epitope peptide of the Spike protein | high CTL response activities | 70.5 | 187 |  |
| LLFITGNTL [pp1a-3745] | Medium (key: High: less than 100 μM; Medium: 100 to 200 μM; Low: more than 200 μM) | 0.03% |  |  |  |  | 154 |  |
| MLLTFLTSL [pp1a-3560] | High (key: High: less than 100 μM; Medium: 100 to 200 μM; Low: more than 200 μM) | 0.04% |  |  |  |  | 47.1 |  |
| MLSRALKKV [pp1a-1288] | High (key: High: less than 100 μM; Medium: 100 to 200 μM; Low: more than 200 μM) | 0.05% |  |  |  |  | 65.1 |  |
| QLSLPVLQV [pp1a-15] | High (key: High: less than 100 μM; Medium: 100 to 200 μM; Low: more than 200 μM) | 0.05% |  |  |  |  | 75.7 |  |
| SLQVCVQTV [pp1a-1139] | High (key: High: less than 100 μM; Medium: 100 to 200 μM; Low: more than 200 μM) | 0.07% |  |  |  |  | 4.9 |  |
| TLGVLVPHV [pp1a-103] | High (key: High: less than 100 μM; Medium: 100 to 200 μM; Low: more than 200 μM) | 0.07% |  |  |  |  | 3.1 |  |
| VLGSLAATV [pp1a-4219] | High (key: High: less than 100 μM; Medium: 100 to 200 μM; Low: more than 200 μM) | 0.01% |  |  |  |  | 53.3 |  |
| VLLSVLQQL [pp1a-3848] | Medium (key: High: less than 100 μM; Medium: 100 to 200 μM; Low: more than 200 μM) | 0.07% |  |  |  |  | 102 |  |
| YLSSVLLAL [pp1a-1652, YLSSVLLAL] | High (key: High: less than 100 μM; Medium: 100 to 200 μM; Low: more than 200 μM) | 0.05% |  |  |  |  | 6.7 |  |
